Results from US10385056B2, “4-substituted pyrrolo[2,3-d]pyrimidine compound and use thereof” (JIANGSU CAREFREE PHARMACEUTICAL CO., LTD, priority 2014, dated 2019).

Experiments:
JAK1 = JAK1 (Homo sapiens, UniProt P23458); assay: Caliper Mobility Shift Assay, kinase inhibition; assay type: biochemical; details: ATP by Km value
JAK2 = JAK2 (Homo sapiens, UniProt O60674); assay: Caliper Mobility Shift Assay, kinase inhibition; assay type: biochemical; details: ATP by Km value
JAK3 = biological target: T1, JAK3 (Homo sapiens, UniProt P52333); assay: Caliper Mobility Shift Assay, kinase inhibition; assay type: biochemical; details: ATP by Km value
T1 sequence (P52333 1-1124): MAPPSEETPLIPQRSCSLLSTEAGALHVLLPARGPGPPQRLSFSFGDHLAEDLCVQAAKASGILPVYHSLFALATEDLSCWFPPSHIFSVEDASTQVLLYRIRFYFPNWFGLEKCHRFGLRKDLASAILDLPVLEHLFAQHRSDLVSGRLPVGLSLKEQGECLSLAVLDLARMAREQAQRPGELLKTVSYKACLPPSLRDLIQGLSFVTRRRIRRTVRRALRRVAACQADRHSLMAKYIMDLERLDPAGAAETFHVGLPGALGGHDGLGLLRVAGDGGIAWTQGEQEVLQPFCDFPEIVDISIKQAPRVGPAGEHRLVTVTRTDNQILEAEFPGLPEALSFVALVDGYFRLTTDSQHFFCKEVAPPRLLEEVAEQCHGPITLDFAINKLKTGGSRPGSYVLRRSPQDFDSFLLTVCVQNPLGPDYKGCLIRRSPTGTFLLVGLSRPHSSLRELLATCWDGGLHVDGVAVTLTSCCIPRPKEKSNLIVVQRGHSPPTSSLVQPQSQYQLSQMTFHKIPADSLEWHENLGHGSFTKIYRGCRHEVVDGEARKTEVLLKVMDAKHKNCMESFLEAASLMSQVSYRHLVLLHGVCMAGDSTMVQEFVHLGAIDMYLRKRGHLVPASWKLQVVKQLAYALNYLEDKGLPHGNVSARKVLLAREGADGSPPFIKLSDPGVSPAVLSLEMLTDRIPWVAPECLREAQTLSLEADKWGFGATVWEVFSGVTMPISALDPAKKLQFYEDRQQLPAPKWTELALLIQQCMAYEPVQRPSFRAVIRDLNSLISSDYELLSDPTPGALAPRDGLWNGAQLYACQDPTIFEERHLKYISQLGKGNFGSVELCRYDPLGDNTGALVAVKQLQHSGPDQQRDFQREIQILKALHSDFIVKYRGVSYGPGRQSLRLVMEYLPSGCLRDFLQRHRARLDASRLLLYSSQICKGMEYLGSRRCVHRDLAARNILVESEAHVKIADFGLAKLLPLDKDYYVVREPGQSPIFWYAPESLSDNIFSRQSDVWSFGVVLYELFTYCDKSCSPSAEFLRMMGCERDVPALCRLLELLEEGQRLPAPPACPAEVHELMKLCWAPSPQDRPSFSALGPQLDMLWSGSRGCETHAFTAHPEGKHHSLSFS

phosphorylated JAK1 = assay: CTLL-2 cells, IL-2 stimulated, Western blot of phosphorylation; assay type: cell-based; details: Mus musculus, starved 6 h with compound, IL-2 150 U/mL 10 min, phosphorylated JAK1 by Western blot, read-out: IC50 g (nM) JAK1
Procedure: (§1) Incubating for 10 min and collecting cells. Adding cell lysis buffer for cell lysis. Collecting protein to perform WEST-Blot detection, detecting phosphorylated JAK1, the phosphorylation of JAK2 and the phosphorylated STAT5, and obtaining the IC50 value.

phosphorylated STAT5 = assay: as above; assay type: cell-based; details: Mus musculus, starved 6 h with compound, IL-2 150 U/mL 10 min, phosphorylated STAT5 by Western blot, read-out: IC50 g (nM) STAT5
Procedure: as §1

phosphorylation of JAK2 = assay: as above; assay type: cell-based; details: Mus musculus, starved 6 h with compound, IL-2 150 U/mL 10 min, phosphorylation of JAK2 by Western blot, read-out: IC50 g (nM) JAK2
Procedure: as §1

[1] = tested on: rat with rheumatoid arthritis; assay: Collagen-induced rheumatoid arthritis model, arthritis score; assay type: in vivo; details: DBA/1J rat, bovine Type II collagen/CFA model, intragastric administration, scored 2 weeks after administration, 1-4 scoring method
Procedure: For the function of the compound inhibiting rheumatoid arthritis, selecting DBA/1J rat, carrying out subcutaneous injection after complete emulsion of 50 ug of bovine Type II collagen and isometric complete Freund's adjuvant (CFA). Strengthening immunization once 21 days after adequate emulsion of 50 ug of same antigen and incomplete Freund's adjuvant (IFA). Starting observation and recording from the 45th day. Using 1-4 scoring method: 1 score, normal; 2 scores, swelling of one joint; 3 scores, swelling of more than one joint but not all joints; 4 scores, severe swelling or stiffness of the whole claw. Adding scores of all claws to obtain the total score of arthritis in rat. Showing successful model establishment when the total joint score of the rat is more than 1. After successfully establishing the model of rat with rheumatoid arthritis, using the compound of the invention to feed the rat by intragastric administration and scoring arthritis of the rat 2 weeks after administration.

JAK2, sequence (O60674 whole entry, species assumed): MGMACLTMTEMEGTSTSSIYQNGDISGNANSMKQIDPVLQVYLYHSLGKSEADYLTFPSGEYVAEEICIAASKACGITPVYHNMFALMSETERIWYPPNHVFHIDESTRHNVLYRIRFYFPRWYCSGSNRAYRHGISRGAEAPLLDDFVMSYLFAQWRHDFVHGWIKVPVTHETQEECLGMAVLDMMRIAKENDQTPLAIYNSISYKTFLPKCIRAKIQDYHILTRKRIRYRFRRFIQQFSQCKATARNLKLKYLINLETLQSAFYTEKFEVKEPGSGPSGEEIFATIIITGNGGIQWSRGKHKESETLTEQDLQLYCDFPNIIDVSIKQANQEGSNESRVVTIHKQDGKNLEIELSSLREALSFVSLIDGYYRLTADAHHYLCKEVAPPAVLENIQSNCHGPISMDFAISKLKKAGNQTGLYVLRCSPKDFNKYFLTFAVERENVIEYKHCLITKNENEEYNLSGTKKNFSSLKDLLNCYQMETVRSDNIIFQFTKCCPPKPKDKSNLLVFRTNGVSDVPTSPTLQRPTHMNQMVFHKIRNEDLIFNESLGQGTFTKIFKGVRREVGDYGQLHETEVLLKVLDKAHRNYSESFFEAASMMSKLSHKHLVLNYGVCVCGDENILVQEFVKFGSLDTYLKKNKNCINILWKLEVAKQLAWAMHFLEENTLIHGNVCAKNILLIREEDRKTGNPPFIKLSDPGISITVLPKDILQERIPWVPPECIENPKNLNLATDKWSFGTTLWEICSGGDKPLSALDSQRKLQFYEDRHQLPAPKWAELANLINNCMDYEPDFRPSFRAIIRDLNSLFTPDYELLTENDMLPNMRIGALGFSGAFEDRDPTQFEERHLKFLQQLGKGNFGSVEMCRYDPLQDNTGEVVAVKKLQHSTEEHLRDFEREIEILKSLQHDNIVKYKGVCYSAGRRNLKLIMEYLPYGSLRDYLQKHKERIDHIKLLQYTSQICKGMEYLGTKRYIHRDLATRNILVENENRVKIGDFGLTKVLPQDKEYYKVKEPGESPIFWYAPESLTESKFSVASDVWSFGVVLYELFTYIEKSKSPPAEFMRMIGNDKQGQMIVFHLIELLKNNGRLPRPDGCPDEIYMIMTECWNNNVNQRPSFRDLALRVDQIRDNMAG
JAK1, sequence (P23458 whole entry, species assumed): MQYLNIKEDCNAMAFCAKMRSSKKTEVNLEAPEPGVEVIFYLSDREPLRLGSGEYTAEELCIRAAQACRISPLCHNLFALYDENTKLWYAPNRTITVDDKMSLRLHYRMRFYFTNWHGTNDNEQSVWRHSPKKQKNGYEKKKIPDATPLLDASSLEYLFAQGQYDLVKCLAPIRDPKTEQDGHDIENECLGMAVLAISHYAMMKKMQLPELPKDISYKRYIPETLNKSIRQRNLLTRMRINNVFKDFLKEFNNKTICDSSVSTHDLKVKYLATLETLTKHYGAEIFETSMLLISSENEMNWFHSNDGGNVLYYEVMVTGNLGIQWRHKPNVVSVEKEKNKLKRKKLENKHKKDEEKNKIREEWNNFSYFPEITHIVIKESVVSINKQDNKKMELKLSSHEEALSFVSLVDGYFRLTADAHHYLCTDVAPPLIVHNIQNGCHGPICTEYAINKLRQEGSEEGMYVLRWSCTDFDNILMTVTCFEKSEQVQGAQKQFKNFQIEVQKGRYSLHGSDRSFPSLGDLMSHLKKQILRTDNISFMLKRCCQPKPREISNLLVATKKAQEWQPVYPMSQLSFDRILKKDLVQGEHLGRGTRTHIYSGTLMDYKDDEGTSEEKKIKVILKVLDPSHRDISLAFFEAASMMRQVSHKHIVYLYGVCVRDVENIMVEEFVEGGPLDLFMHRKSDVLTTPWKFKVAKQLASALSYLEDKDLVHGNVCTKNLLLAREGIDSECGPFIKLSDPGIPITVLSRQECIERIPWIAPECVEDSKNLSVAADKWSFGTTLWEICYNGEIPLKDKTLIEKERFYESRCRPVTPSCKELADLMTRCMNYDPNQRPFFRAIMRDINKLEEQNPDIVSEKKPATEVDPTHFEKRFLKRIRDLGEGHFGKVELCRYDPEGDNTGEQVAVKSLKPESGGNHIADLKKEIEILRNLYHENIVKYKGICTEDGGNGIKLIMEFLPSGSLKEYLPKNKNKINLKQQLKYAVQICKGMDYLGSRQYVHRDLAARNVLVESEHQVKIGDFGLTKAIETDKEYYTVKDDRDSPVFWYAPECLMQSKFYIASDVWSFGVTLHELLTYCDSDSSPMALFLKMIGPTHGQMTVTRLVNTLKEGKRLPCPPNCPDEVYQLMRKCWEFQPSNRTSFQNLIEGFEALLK

| SMILES | IC50 (JAK1) [nM] | IC50 (JAK2) [nM] | IC50 (JAK3) [nM] | IC50 (phosphorylated JAK1) [nM] | IC50 (phosphorylated STAT5) [nM] | IC50 (phosphorylation of JAK2) [nM] | Score of arthritis [1] |
| --- | --- | --- | --- | --- | --- | --- | --- |
| N#CCC1(n2cc(-c3ncnc4[nH]ccc34)c3ccccc32)CN(S(=O)(=O)N2CCCC2)C1 [Example 10] | 7 | 3.5 | 67 | – | – | – | – |
| CCS(=O)(=O)N1CC(CC#N)(n2cc(-c3ncnc4[nH]ccc34)c3ccccc32)C1 [Example 1, 2-(3-(3-(7H-pyrrole[2,3-d]pyrimidine-4-yl)-1H-indole-1-yl)-1-(ethylsulfonyl)azetidine-3-yl)acetonitrile] | 11 | 1.1 | 100 | 26.3 | 125 | 18.4 | – |
| CCS(=O)(=O)N1CC(CC#N)(n2cc(-c3ncnc4[nH]ccc34)c3ccc(Br)cc32)C1 [Example 31, 2-(1-(ethylsulfonyl)-3-(6-bromo-3-(7H-pyrrole[2,3-d]pyrimidine-4-yl)-1H-indole-1-yl)azetidine-3-yl)acetonitrile] | 3.5 | 8.3 | 21 | – | – | – | – |
| CC(C)S(=O)(=O)N1CC(CC#N)(n2cc(-c3ncnc4[nH]ccc34)c3ccc(Cl)cc32)C1 [Example 28, 2-(1-(isopropylsulfonyl)-3-(6-chloro-3-(7H-pyrrole[2,3-d]pyrimidine-4-yl)-1H-indole-1-yl)azetidine-3-yl)acetonitrile] | 6.5 | 2.4 | 64 | – | – | – | – |
| CCS(=O)(=O)N1CC(CC#N)(n2cc(-c3ncnc4[nH]ccc34)c3ccc(Cl)cc32)C1 [Example 26, 2-(1-(ethylsulfonyl)-3-(6-chloro-3-(7H-pyrrole[2,3-d]pyrimidine-4-yl)-1H-indole-1-yl)azetidine-3-yl)acetonitrile] | 3.5 | 0.72 | 34 | – | – | – | – |
| N#CCC1(n2cc(-c3ncnc4[nH]ccc34)c3ccccc32)CN(C(=O)[C@@H]2CCCN2)C1 (stereo in doubt) [Example 11, 2-(3-(3-(7H-pyrrole[2,3-d]pyrimidine-4-yl)-1H-indole-1-yl)-1-(pyrrolidine-2-carbonyl)azetidine-3-yl)acetonitrile] | 300 | 692 | 521 | 30 | 692 | 192 | – |
| CCS(=O)(=O)N1CC(CC#N)(n2cc(-c3ncnc4[nH]ccc34)cn2)C1 [Baricitinib, reference compound] | – | – | – | – | – | – | 2.4 |
| CS(=O)(=O)N1CC(CC#N)(n2cc(-c3ncnc4[nH]ccc34)c3ccccc32)C1 [Example 2, 2-(3-(3-(7H-pyrrole[2,3-d]pyrimidine-4-yl)-1H-indole-1-yl)-1-(methylsulfonyl)azetidine-3-yl)acetonitrile] | 8 | 0.9 | 128 | – | 146 | 5.4 | – |

More lines, main results first:

| IC50 (JAK1) [nM] | IC50 (JAK2) [nM] | IC50 (JAK3) [nM] | IC50 (phosphorylated JAK1) [nM] | IC50 (phosphorylated STAT5) [nM] | IC50 (phosphorylation of JAK2) [nM] | SMILES | Score of arthritis [1] |
| --- | --- | --- | --- | --- | --- | --- | --- |
| 45.5 | 41.6 | 172 | – | – | – | CCS(=O)(=O)N1CC(CC#N)(n2cc(-c3ncnc4[nH]ccc34)c3ccc(CC#N)cc32)C1 [Example 51, 2-(1-(ethylsulfonyl)-3-(6-ethylcyano-3-(7H-pyrrole[2,3-d]pyrimidine-4-yl)-1H-indole-1-yl)azetidine-3-yl)acetonitrile] | – |
| 4.5 | 6.3 | 124 | – | – | – | CS(=O)(=O)N1CC(CC#N)(n2cc(-c3ncnc4[nH]ccc34)c3ccc(F)c(F)c32)C1 [Example 32, 2-(1-(methylsulfonyl)-3-(5,6-difluoro-3-(7H-pyrrole[2,3-d]pyrimidine-4-yl)-1H-indole-1-yl)azetidine-3-yl)acetonitrile] | – |
| 10.5 | 4.6 | 72 | – | – | – | CCS(=O)(=O)N1CC(CC#N)(n2cc(-c3ncnc4[nH]ccc34)c3c(F)ccc(F)c32)C1 [Example 48, 2-(1-(ethylsulfonyl)-3-(5,8-difluoro-3-(7H-pyrrole[2,3-d]pyrimidine-4-yl)-1H-indole-1-yl)azetidine-3-yl)acetonitrile] | – |
| 5.4 | 1.4 | 17 | – | – | – | CCS(=O)(=O)N1CC(CC#N)(n2cc(-c3ncnc4[nH]ccc34)c3ccc(CC(F)(F)F)cc32)C1 [Example 53, 2-(1-(ethylsulfonyl)-3-(6-trifluoroethyl-3-(7H-pyrrole[2,3-d]pyrimidine-4-yl)-1H-indole-1-yl)azetidine-3-yl)acetonitrile] | – |
| 7.9 | 2.4 | 232 | 75.2 | 196 | 38.3 | CCS(=O)(=O)N1CC(CC#N)(n2cc(-c3ncnc4[nH]ccc34)c3cc(C(F)(F)F)ccc32)C1 [Example 63, 2-(1-(ethylsulfonyl)-3-(5-trifluoromethyl-3-(7H-pyrrole[2,3-d]pyrimidine-4-yl)-1H-indole-1-yl)azetidine-3-yl)acetonitrile] | – |
| 30.5 | 11.6 | 58 | – | – | – | CCS(=O)(=O)N1CC(CC#N)(n2cc(-c3ncnc4[nH]ccc34)c3cc(F)cc(F)c32)C1 [Example 47, 2-(1-(ethylsulfonyl)-3-(5,7-difluoro-3-(7H-pyrrole[2,3-d]pyrimidine-4-yl)-1H-indole-1-yl)azetidine-3-yl)acetonitrile] | – |
| 13.3 | 28.4 | 67 | – | – | – | CCCS(=O)(=O)N1CC(CC#N)(n2cc(-c3ncnc4[nH]ccc34)c3c(F)cc(F)cc32)C1 [Example 43, 2-(1-(propylsulfonyl)-3-(6,8-difluoro-3-(7H-pyrrole[2,3-d]pyrimidine-4-yl)-1H-indole-1-yl)azetidine-3-yl)acetonitrile] | – |
| 25.4 | 2.8 | 90 | – | – | – | CCOc1ccc2c(-c3ncnc4[nH]ccc34)cn(C3(CC#N)CN(S(=O)(=O)CC)C3)c2c1 [Example 59, 2-(1-(ethylsulfonyl)-3-(6-ethoxyl-3-(7H-pyrrole[2,3-d]pyrimidine-4-yl)-1H-indole-1-yl)azetidine-3-yl)acetonitrile] | – |
| 3.6 | 1 | 30 | 33.9 | 130 | 29.9 | CCS(=O)(=O)N1CC(CC#N)(n2cc(-c3ncnc4[nH]ccc34)c3cc(F)ccc32)C1 [Example 62, 2-(1-(ethylsulfonyl)-3-(5-fluoro-3-(7H-pyrrole[2,3-d]pyrimidine-4-yl)-1H-indole-1-yl)azetidine-3-yl)acetonitrile] | – |
| 15.2 | 2.5 | 36 | – | – | – | CCS(=O)(=O)N1CC(CC#N)(n2cc(-c3ncnc4[nH]ccc34)c3ccc(C)cc32)C1 [Example 54, 2-(1-(ethylsulfonyl)-3-(6-methyl-3-(7H-pyrrole[2,3-d]pyrimidine-4-yl)-1H-indole-1-yl)azetidine-3-yl)acetonitrile] | – |
